The target of assay [1] is T1, 15-hydroxyprostaglandin dehydrogenase [NAD(+)] (Homo sapiens, UniProt P15428).
T1 sequence (P15428 whole entry): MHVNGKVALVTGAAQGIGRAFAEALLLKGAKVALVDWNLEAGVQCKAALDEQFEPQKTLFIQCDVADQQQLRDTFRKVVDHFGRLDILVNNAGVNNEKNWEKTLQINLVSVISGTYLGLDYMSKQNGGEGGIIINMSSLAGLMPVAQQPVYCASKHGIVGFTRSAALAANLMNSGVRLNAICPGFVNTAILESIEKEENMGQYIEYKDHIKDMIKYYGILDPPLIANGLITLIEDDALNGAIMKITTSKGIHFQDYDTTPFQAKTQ
Nature of the assay: Inhibition of 15-PGDH in human A549 cells assessed as increase in IL-1beta-stimulated PGE2 levels measured after 24 hrs by competitive HTRF assay. In kind it is cell-based. For orientation: In TR-FRET formats the signal depends on donor and acceptor labels being close together.

Assay [2] addresses T1, 15-hydroxyprostaglandin dehydrogenase [NAD(+)]. Nature of the assay: Inhibition of recombinant human 15-PGDH using PGE2 and beta-NAD+ as substrate preincubated for 15 mins followed by substrate addition and measured after 60 mins.

From ChEMBL document CHEMBL6115043, “Novel 5,6-Fused and 6,6-Fused Bicyclic Compounds as 15-Prostaglandin Dehydrogenase Modulators” (ACS Med Chem Lett, 2025) come the findings set out here.

For the compound `Cn1cc2cc(-c3ccc4cc([C@]5(O)C[C@@H](C(F)(F)F)C5)sc4n3)cnc2n1`, the IC50 (as a rule, the concentration needed to halve the response being measured) in assay [1] is 0.05 nM.

As to `Cn1cc2cc(-c3ccc4nc([C@H](O)C5CC(F)(F)C5)sc4n3)cnc2n1`, the figures for the IC50 in assay [2] and in assay [1] were 0.22 nM and 0.05 nM, respectively.
